According to patent US6544502B2, “Skin treatment with a water soluble antibiotic dissolved in an electrolyzed water” (Wasatch Pharmaceutical Inc., priority 1992, dated 2003):

Legend:
[1] = Stability of antibiotic in aqueous solution; type: physicochemical; conditions: hydrate salt in water
[2] = Solubility of antibiotic (water, lipoid); type: physicochemical

lipoid solubility [2]: high degree of lipoid solubility | solubility in water [2]: readily soluble in water
Substance: Doxycycline hyclate
stability of water soluble salt [1]: no pH sensitivity or breakdown into the inactive ingredients
